The results in this text go back to ChEMBL document CHEMBL5143634, “Design, synthesis, and anti-influenza A virus activity evaluation of novel indole containing derivatives of triazole” (Bioorg Med Chem Lett, 2022).

SMILES strings stand for the structures. pIC50: −log10 of the molar value. A value given as a limit tells only on which side of the number the result lay.

For series [1], the system named is Influenza A virus. The series can be described thus: Antiviral activity against Influenza A virus A/WSN/33 (H1N1) infected in HEK293T cells at 10 uM by Gaussia luciferase reporter assay. The note with it: HEK-293T. The class given is functional. A general note: In a reporter assay the amount or activity of a reporter protein is the signal.
The nature of series [2]: Selectivity index, ratio of CC50 for human HEK293T cells to IC50 for antiviral activity against Influenza A virus A/WSN/33 (H1N1) infected in HEK293T cells. The format is toxicity, cell-based. To be noted: read-out: Ratio CC50/IC50.
Series [3] in a line: Cytotoxicity against human HEK293T cells assessed as cell viability after 48 hrs by CCK-8 assay. The format is toxicity, cell-based, HEK-293T. (In general: Formazan colour is commonly taken as a measure of viable cells.)
In series [4] the test system is Influenza A virus. The series can be described thus: Antiviral activity against Influenza A virus A/WSN/33 (H1N1) infected in HEK293T cells by Gaussia luciferase reporter assay. To be noted: HEK-293T. The format is functional, organism-based.

For orientation: inhibition means how much of the control response was suppressed. A high value points to strong suppression. A word on the CC50: it is the concentration that lowers cell viability or growth by half. By pIC50 is commonly meant the negative decadic logarithm of the IC50, by convention in mol/L. Read a low pIC50 as a large IC50.

For the compound `Cn1cc(SCc2nnc(SCc3ccccc3OC(F)(F)F)n2-c2c(Cl)cccc2Cl)c2ccccc21`, the inhibition at 10 µM in series [1] was > 50%. For the same compound, the selectivity ratio in series [2] was > 70.9. Moreover, in series [3], the cytotoxic concentration (CC50) at 48 h is > 100 µM. This compound showed a pIC50 in series [4] of 5.85.

With `Cn1cc(SCc2nnc(SCc3ccc(Cl)c(F)c3)n2-c2c(Cl)cccc2Cl)c2ccccc21`, in series [1], the inhibition at 10 µM was > 50%. Besides, the selectivity ratio in series [2] is > 14. Besides, in series [3], the CC50 at 48 h is > 100 µM. For the same compound, in series [4], the negative logarithm of the IC50 (pIC50) is 5.15.

As for `Cn1cc(SCc2nnc(SCc3ccccc3Cl)n2-c2c(Cl)cccc2Cl)c2ccccc21`, the inhibition at 10 µM in series [1] was > 50%. In series [2], the selectivity ratio amounted to 6.65. In series [3], the CC50 at 48 h was determined as 49.6 µM. Also, the pIC50 in series [4] is 5.13.

As to `Cn1cc(SCc2nnc(SCc3cccc(Cl)c3F)n2-c2c(Cl)cccc2Cl)c2ccccc21`, the inhibition at 10 µM in series [1] is > 50%. Besides, the selectivity ratio in series [2] was > 23.8. For the same compound, the CC50 at 48 h in series [3] was > 100 µM. Moreover, the negative logarithm of the IC50 (pIC50) in series [4] was 5.38.

As to `Cn1cc(SCc2nnc(SCc3ccc(Cl)cc3F)n2-c2c(Cl)cccc2Cl)c2ccccc21`, the inhibition at 10 µM in series [1] is > 50%. The selectivity ratio in series [2] turned out to be 7.67. The CC50 at 48 h in series [3] stood at 87.3 µM. For the same compound, in series [4], the negative-log IC50 (pIC50) was 4.94.

Consider `Cn1cc(SCc2nnc(SCc3cc(Cl)ccc3F)n2-c2c(Cl)cccc2Cl)c2ccccc21`, for which, in series [1], the inhibition at 10 µM was > 50%. Also, the selectivity ratio in series [2] is > 35.3. For the same compound, the cytotoxic concentration (CC50) at 48 h in series [3] is > 100 µM. The pIC50 in series [4] is 5.55.

Turning to `Cn1cc(SCc2nnc(SCc3cccc(Cl)c3Cl)n2-c2c(Cl)cccc2Cl)c2ccccc21`, the inhibition at 10 µM in series [1] is > 50%. The selectivity ratio in series [2] is > 46.7. Further, the CC50 at 48 h in series [3] is > 100 µM. Also, the pIC50 in series [4] was 5.67.

In the case of `Cn1cc(SCc2nnc(SCc3ccccc3C#N)n2-c2c(Cl)cccc2Cl)c2ccccc21`, the inhibition at 10 µM in series [1] is > 50%. Also, the selectivity ratio in series [2] is 24.7. The CC50 at 48 h in series [3] was 78.6 µM. Further, the pIC50 in series [4] was 5.50.

For the compound `Cn1cc(SCc2nnc(SCc3ccc(Cl)cc3Cl)n2-c2c(Cl)cccc2Cl)c2ccccc21`, in series [1], the inhibition at 10 µM is > 50%. The selectivity ratio in series [2] is > 16.2. The CC50 at 48 h in series [3] was > 100 µM. Moreover, in series [4], the negative logarithm of the IC50 (pIC50) was 5.21.

Turning to `Cn1cc(SCc2nnc(SCc3cc(Cl)ccc3Cl)n2-c2c(Cl)cccc2Cl)c2ccccc21`, in series [1], the inhibition at 10 µM is > 50%. The selectivity ratio in series [2] was > 19.5. Moreover, the CC50 at 48 h in series [3] is > 100 µM. Further, the negative-log IC50 (pIC50) in series [4] was 5.29.

As for `Cn1cc(SCc2nnc(S)n2-c2c(Cl)cccc2Cl)c2ccccc21`, the inhibition at 10 µM in series [1] is > 50%. Besides, the selectivity ratio in series [2] is > 67.6. In addition, in series [3], the CC50 at 48 h is > 100 µM. Besides, the negative logarithm of the IC50 (pIC50) in series [4] is 5.83.

Take `Cn1cc(SCc2nnc(SCc3c(F)cccc3Cl)n2-c2c(Cl)cccc2Cl)c2ccccc21`: the inhibition at 10 µM in series [1] is > 50%. In addition, the selectivity ratio in series [2] is > 25.4. The CC50 at 48 h in series [3] is > 100 µM. The compound also had a pIC50 in series [4] of 5.40.

For `Cn1cc(SCc2nnc(SCc3ccc(OC(F)(F)F)c(Cl)c3)n2-c2c(Cl)cccc2Cl)c2ccccc21`, the inhibition at 10 µM in series [1] is > 50%. The selectivity ratio in series [2] came out at 10.4. Also, the CC50 at 48 h in series [3] turned out to be 77.7 µM. Further, the pIC50 in series [4] was 5.13.

For `Cn1cc(SCc2nnc(SCc3cc(C(F)(F)F)ccc3Cl)n2-c2c(Cl)cccc2Cl)c2ccccc21`, in series [1], the inhibition at 10 µM is > 50%. Further, the selectivity ratio in series [2] is 10.6. Also, the CC50 at 48 h in series [3] came out at 53.8 µM. In series [4], this compound gave a negative logarithm of the IC50 (pIC50) of 5.29.

As to `Cn1cc(SCc2nnc(SCc3ccc(Cl)cc3C(F)(F)F)n2-c2c(Cl)cccc2Cl)c2ccccc21`, the inhibition at 10 µM in series [1] was > 50%. Also, the selectivity ratio in series [2] worked out at 21.8. In series [3], the half-maximal cytotoxic concentration (CC50) at 48 h came out at 56.5 µM. In addition, the pIC50 in series [4] was 5.59.

As for `CCOC(=O)c1c(CSc2nnc(CSc3cn(C)c4ccccc34)n2-c2c(Cl)cccc2Cl)n(C)c2cc(Br)c(OC(C)=O)cc12`, the inhibition at 10 µM in series [1] is > 50%. The selectivity ratio in series [2] was > 44. For the same compound, the 50% cytotoxic concentration (CC50) at 48 h in series [3] was > 100 µM. In series [4], the pIC50 is 5.64.

For `Cn1cc(SCc2nnc(SCc3ccccc3)n2-c2c(Cl)cccc2Cl)c2ccccc21`, the inhibition at 10 µM in series [1] was > 50%. For the same compound, the selectivity ratio in series [2] is > 74.6. In addition, the half-maximal cytotoxic concentration (CC50) at 48 h in series [3] is > 100 µM. This compound gave a pIC50 in series [4] of 5.87.

With `Cn1cc(SCc2nnc(SCc3c(Cl)cccc3Cl)n2-c2c(Cl)cccc2Cl)c2ccccc21`, the inhibition at 10 µM in series [1] is > 50%. Moreover, in series [2], the selectivity ratio was > 11. Moreover, the CC50 at 48 h in series [3] is > 100 µM. Moreover, the negative logarithm of the IC50 (pIC50) in series [4] is 5.04.

Regarding `NC(=O)c1ncn([C@@H]2O[C@H](CO)[C@@H](O)[C@H]2O)n1` [RIBAVIRIN], in series [3], the CC50 at 48 h is > 100 µM. The pIC50 in series [4] is 4.56.
